From patent publication US4281009A, “Hydantoin derivatives” (Nippon Zoki Pharmaceutical Co., Ltd., priority 1978, dated 1981) come the findings set out here.

System in one data set: not listed separately
The experiment in a line: Acute toxicity test (LD50, Litchfield-Wilcoxon), mice. To be noted: mouse, in vivo, ip, female, intraperitoneal. The protocol: (§1) Toxicity tests were carried out by intraperitoneal administration of the compound of the present invention to groups each comprising 10 ICR-strain mice and SD-strain rats. LD50 was calculated by the Litchfield-Wilcoxon method based on the number of death 72 hours after the administration.
For the molecule `O=C1NC(=O)C(c2ccc(O)c(O)c2)(c2ccc(O)c(O)c2)N1` [Compound 17, 5,5-Bis(3,4-dihydroxyphenyl)hydantoin], the LD50 – broadly, the dose at which mortality reaches 50% – at 72 h was 1800 mg/kg.

Regarding `COc1ccc(C2(c3ccc(OC)cc3OC)NC(=O)NC2=O)c(OC)c1` [Compound 18, 5,5-Bis(2,4-Dimethoxyphenyl)hydantoin], the LD50 at 72 h was greater than 5000 mg/kg.

As for `COc1ccc(C2(c3ccc(OC)c(OC)c3)NC(=O)NC2=O)cc1OC` [Compound 19, 5,5-Bis(3,4-dimethoxyphenyl)hydantoin], the LD50 at 72 h is greater than 5000 mg/kg.

As for `O=C1NC(=O)C(c2ccc(O)c(CO)c2)(c2ccc(O)c(CO)c2)N1` [Compound 20, 5,5-Bis(4-hydroxy-3-hydroxymethylphenyl)hydantoin], the LD50 at 72 h was 2980 mg/kg.

With `COc1ccc(C2(c3ccc(OC)c(CO)c3)NC(=O)NC2=O)cc1CO` [Compound 21, 5,5-Bis(3-hydroxymethyl-4-methoxyphenyl)hydantoin], the LD50 at 72 h is greater than 5000 mg/kg.

For the molecule `COc1cc(C2(c3ccc(OC)c(OC)c3OC)NC(=O)NC2=O)cc(OC)c1OC` (centres unmarked) [Compound 22, 5-(2,3,4-Trimethoxyphenyl)-5-(3,4,5-trimethoxyphenyl)hydantoin], the LD50 at 72 h is greater than 5000 mg/kg.

The molecule `O=C1NC(=O)C(c2ccccc2O)(c2ccccc2O)N1` [Compound 29, 5,5-Bis(2-hydroxyphenyl)hydantoin] returned an LD50 at 72 h of 1600 mg/kg.

In the case of `O=C1NC(=O)C(c2ccc(O)cc2)(c2ccc(O)cc2O)N1` (centres unmarked) [Compound 31, 5-(2,4-Dihydroxyphenyl)-5-(4-hydroxyphenyl)hydantoin], the LD50 at 72 h was found to be 1200 mg/kg.

Regarding `O=C1NC(=O)C(c2ccc(O)cc2O)(c2ccc(O)cc2O)N1` [Compound 34, 5,5-Bis(2,4-dihydroxyphenyl)hydantoin], the LD50 at 72 h was found to be 1200 mg/kg.

The same data set, now with this note: mouse, in vivo, ip, male, intraperitoneal.
In turn, `O=C1NC(=O)C(c2ccc(O)c(O)c2)(c2ccc(O)c(O)c2)N1` [Compound 17, 5,5-Bis(3,4-dihydroxyphenyl)hydantoin] returned an LD50 at 72 h of 1500 to 2000 mg/kg.

With `COc1ccc(C2(c3ccc(OC)cc3OC)NC(=O)NC2=O)c(OC)c1` [Compound 18, 5,5-Bis(2,4-Dimethoxyphenyl)hydantoin], the LD50 at 72 h was greater than 5000 mg/kg.

The molecule `COc1ccc(C2(c3ccc(OC)c(OC)c3)NC(=O)NC2=O)cc1OC` [Compound 19, 5,5-Bis(3,4-dimethoxyphenyl)hydantoin] came in with an LD50 at 72 h greater than 5000 mg/kg.

As to `O=C1NC(=O)C(c2ccc(O)c(CO)c2)(c2ccc(O)c(CO)c2)N1` [Compound 20, 5,5-Bis(4-hydroxy-3-hydroxymethylphenyl)hydantoin], the LD50 at 72 h is greater than 3000 mg/kg.

Consider `COc1ccc(C2(c3ccc(OC)c(CO)c3)NC(=O)NC2=O)cc1CO` [Compound 21, 5,5-Bis(3-hydroxymethyl-4-methoxyphenyl)hydantoin], for which the LD50 at 72 h is greater than 5000 mg/kg.

Molecule `COc1cc(C2(c3ccc(OC)c(OC)c3OC)NC(=O)NC2=O)cc(OC)c1OC` (centres unmarked) [Compound 22, 5-(2,3,4-Trimethoxyphenyl)-5-(3,4,5-trimethoxyphenyl)hydantoin] showed an LD50 at 72 h greater than 5000 mg/kg.

Take `O=C1NC(=O)C(c2ccccc2O)(c2ccccc2O)N1` [Compound 29, 5,5-Bis(2-hydroxyphenyl)hydantoin]: the LD50 at 72 h is 1600 to 1800 mg/kg.

In turn, `O=C1NC(=O)C(c2ccc(O)cc2)(c2ccc(O)cc2O)N1` (centres unmarked) [Compound 31, 5-(2,4-Dihydroxyphenyl)-5-(4-hydroxyphenyl)hydantoin] had an LD50 at 72 h of 1220 mg/kg.

`O=C1NC(=O)C(c2ccc(O)cc2O)(c2ccc(O)cc2O)N1` [Compound 34, 5,5-Bis(2,4-dihydroxyphenyl)hydantoin] registered an LD50 at 72 h greater than 1000 mg/kg.

System in another data set: not listed separately
The experiment in a line: Acute toxicity test (LD50, Litchfield-Wilcoxon), rats. To be noted: rat, in vivo, ip, female, intraperitoneal. The protocol:
as §1
Consider `O=C1NC(=O)C(c2ccc(O)c(O)c2)(c2ccc(O)c(O)c2)N1` [Compound 17, 5,5-Bis(3,4-dihydroxyphenyl)hydantoin], for which the LD50 at 72 h is 2220 mg/kg.

In turn, `COc1ccc(C2(c3ccc(OC)cc3OC)NC(=O)NC2=O)c(OC)c1` [Compound 18, 5,5-Bis(2,4-Dimethoxyphenyl)hydantoin] came in with an LD50 at 72 h greater than 5000 mg/kg.

Turning to `COc1ccc(C2(c3ccc(OC)c(OC)c3)NC(=O)NC2=O)cc1OC` [Compound 19, 5,5-Bis(3,4-dimethoxyphenyl)hydantoin], the LD50 at 72 h was greater than 5000 mg/kg.

`O=C1NC(=O)C(c2ccc(O)c(CO)c2)(c2ccc(O)c(CO)c2)N1` [Compound 20, 5,5-Bis(4-hydroxy-3-hydroxymethylphenyl)hydantoin] yielded an LD50 at 72 h of 4090 mg/kg.

The molecule `COc1ccc(C2(c3ccc(OC)c(CO)c3)NC(=O)NC2=O)cc1CO` [Compound 21, 5,5-Bis(3-hydroxymethyl-4-methoxyphenyl)hydantoin] registered an LD50 at 72 h greater than 5000 mg/kg.

Molecule `COc1cc(C2(c3ccc(OC)c(OC)c3OC)NC(=O)NC2=O)cc(OC)c1OC` (centres unmarked) [Compound 22, 5-(2,3,4-Trimethoxyphenyl)-5-(3,4,5-trimethoxyphenyl)hydantoin] registered an LD50 at 72 h greater than 5000 mg/kg.

Molecule `O=C1NC(=O)C(c2ccccc2O)(c2ccccc2O)N1` [Compound 29, 5,5-Bis(2-hydroxyphenyl)hydantoin] returned an LD50 at 72 h of 1900 mg/kg.

Regarding `O=C1NC(=O)C(c2ccc(O)cc2)(c2ccc(O)cc2O)N1` (centres unmarked) [Compound 31, 5-(2,4-Dihydroxyphenyl)-5-(4-hydroxyphenyl)hydantoin], the LD50 at 72 h worked out at 1510 mg/kg.

Consider `O=C1NC(=O)C(c2ccc(O)cc2O)(c2ccc(O)cc2O)N1` [Compound 34, 5,5-Bis(2,4-dihydroxyphenyl)hydantoin], for which the LD50 at 72 h fell in the range of 2000 to 3000 mg/kg.

Still in this data set, the particulars now being: rat, in vivo, ip, male, intraperitoneal.
In the case of `O=C1NC(=O)C(c2ccc(O)c(O)c2)(c2ccc(O)c(O)c2)N1` [Compound 17, 5,5-Bis(3,4-dihydroxyphenyl)hydantoin], the LD50 at 72 h amounted to 2400 mg/kg.

Molecule `COc1ccc(C2(c3ccc(OC)cc3OC)NC(=O)NC2=O)c(OC)c1` [Compound 18, 5,5-Bis(2,4-Dimethoxyphenyl)hydantoin] came in with an LD50 at 72 h greater than 5000 mg/kg.

`COc1ccc(C2(c3ccc(OC)c(OC)c3)NC(=O)NC2=O)cc1OC` [Compound 19, 5,5-Bis(3,4-dimethoxyphenyl)hydantoin]: the LD50 at 72 h is greater than 5000 mg/kg.

For the molecule `O=C1NC(=O)C(c2ccc(O)c(CO)c2)(c2ccc(O)c(CO)c2)N1` [Compound 20, 5,5-Bis(4-hydroxy-3-hydroxymethylphenyl)hydantoin], the LD50 at 72 h was found to be 4310 mg/kg.

Molecule `COc1ccc(C2(c3ccc(OC)c(CO)c3)NC(=O)NC2=O)cc1CO` [Compound 21, 5,5-Bis(3-hydroxymethyl-4-methoxyphenyl)hydantoin] came in with an LD50 at 72 h greater than 5000 mg/kg.

In the case of `COc1cc(C2(c3ccc(OC)c(OC)c3OC)NC(=O)NC2=O)cc(OC)c1OC` (centres unmarked) [Compound 22, 5-(2,3,4-Trimethoxyphenyl)-5-(3,4,5-trimethoxyphenyl)hydantoin], the LD50 at 72 h was greater than 5000 mg/kg.

Molecule `O=C1NC(=O)C(c2ccccc2O)(c2ccccc2O)N1` [Compound 29, 5,5-Bis(2-hydroxyphenyl)hydantoin] registered an LD50 at 72 h of 1980 mg/kg.

Molecule `O=C1NC(=O)C(c2ccc(O)cc2)(c2ccc(O)cc2O)N1` (centres unmarked) [Compound 31, 5-(2,4-Dihydroxyphenyl)-5-(4-hydroxyphenyl)hydantoin] came in with an LD50 at 72 h of 1540 mg/kg.

`O=C1NC(=O)C(c2ccc(O)cc2O)(c2ccc(O)cc2O)N1` [Compound 34, 5,5-Bis(2,4-dihydroxyphenyl)hydantoin] showed an LD50 at 72 h of 2000 to 3000 mg/kg.

Another data set has as its system normal mice and SART stress mice. The experiment in a line: Analgesic effect, tail pressure method (Randall-Selitto's device). Format: in vivo, mice (ddY-strain male). To be noted: Mus musculus, po, SART stress mice; peroral 100 mg/kg; average of 30, 60, 90 and 120 minutes. The protocol: 5.1 Tail pressure method:
Randall-Selitto's device for determining analgesic effect by pressure stimulation was used. […]. The compounds of the present invention or other comparative drugs were given thereto and analgesic effect was determined. The effect was judged by measuring pressure applied 60 minutes after the intraperitoneal administration of the compounds of the present invention. The pressure thus measured was divided by a pressure before the administration. The value thus obtained was compared with that of a control group (to which 10 ml./Kg of 0.5% sodium salt of carboxymethylcellulose or 0.5% Tween 80 was given). When the compounds of the present invention were given perorally and other comparative drugs were given, an average of the pressure at 30, 60, 90 and 120 minutes after the administration was employed for evaluating the effect.
Turning to `Cc1c(N(C)C)c(=O)n(-c2ccccc2)n1C` [Aminopyrine, reference compound], the change in vivo at 100 mg/kg came to 58.9%.

Staying with this data set, now noted: Mus musculus, po, normal mice; peroral 100 mg/kg; average of 30, 60, 90 and 120 minutes.
`Cc1c(N(C)C)c(=O)n(-c2ccccc2)n1C` [Aminopyrine, reference compound] returned a change in vivo at 100 mg/kg of 43.5%.

A further data set shares this test system. The experiment in a line: Analgesic effect, D'Amour-Smith method. The data set is classed as in vivo, mice (ddY-strain male). To be noted: Mus musculus, po, SART stress mice; peroral 100 mg/kg. Here is the method:
5.3. D'Amour-Smith method:
Groups each comprising 10 ddY-strain male normal mice and SART stress mice to which SART stress had been applied for 4 days were used. The root of the tail of the mouse to which black ink was applied was irradiated with infrared rays for up to 15 seconds. Time required till escape response was observed was measured. The effect was shown by the ratio of the mice in which an average value of the response time at 30, 60, 90 and 120 minutes after the administration of the compounds of the present invention or other comparative drugs was prolonged to at least 2 times as long as the time before the administration.
`Cc1c(N(C)C)c(=O)n(-c2ccccc2)n1C` [Aminopyrine, reference compound] yielded a responders at 100 mg/kg of 50%.

Staying with this data set, now noted: Mus musculus, po, normal mice; peroral 100 mg/kg.
Turning to `Cc1c(N(C)C)c(=O)n(-c2ccccc2)n1C` [Aminopyrine, reference compound], the responders at 100 mg/kg worked out at 10%.

The next data set concerns ddY-strain male mice. In words: Effect of prolongation of sleeping time (hexobarbital). Format: in vivo. To be noted: Mus musculus, ip, 100 mg/kg intraperitoneal. The protocol: 7. Effect of prolongation of sleeping time:
Groups of mice each comprising 10 ddY-strain male mice were used. Sodium salt of hexobarbital was given intraperitoneally. Thereafter, the period of time in which righting reflex disappeared was measured. The effect was evaluated on the basis of prolongation of time of disappearance of righting reflex by the intraperitoneal administration of the compounds of the present invention as compared with control mice.
`COc1ccc(C2(c3ccc(OC)c(OC)c3)NC(=O)NC2=O)cc1OC` [Compound 19, 5,5-Bis(3,4-dimethoxyphenyl)hydantoin] showed a change in vivo at 100 mg/kg of 10%.

The molecule `COc1ccc(C2(c3ccc(OC)c(CO)c3)NC(=O)NC2=O)cc1CO` [Compound 21, 5,5-Bis(3-hydroxymethyl-4-methoxyphenyl)hydantoin] gave a change in vivo at 100 mg/kg of 25.1%.

`COc1cc(C2(c3ccc(OC)c(OC)c3OC)NC(=O)NC2=O)cc(OC)c1OC` (centres unmarked) [Compound 22, 5-(2,3,4-Trimethoxyphenyl)-5-(3,4,5-trimethoxyphenyl)hydantoin] returned a change in vivo at 100 mg/kg of 13.1%.

`O=C1NC(=O)C(c2ccc(O)cc2)(c2ccc(O)cc2O)N1` (centres unmarked) [Compound 31, 5-(2,4-Dihydroxyphenyl)-5-(4-hydroxyphenyl)hydantoin]: the change in vivo at 100 mg/kg worked out at 19.1%.
